The values below come from patent publication US11147801B2, “Methods of use for trisubstituted benzotriazole derivatives as dihydroorotate oxygenase inhibitors” (Aurigene Discovery Technologies Limited, priority 2017, dated 2021).

The structures appear in SMILES notation. Where only a bound is given, the exact number is not on record here.

Experiment [1] addresses T1, DHODH (Homo sapiens (Human), UniProt Q02127). Briefly: DHODH activity assay (coupled enzyme assay, DCIP reduction). The note with it: read-out: DHODH inhibition activity, IC50 group. In kind it is biochemical. On the procedure:
The DHODH activity assay is a coupled enzyme assay in which oxidation of DHO and subsequent reduction of ubiquinone are stoichiometrically equivalent to the reduction of DCIP ([…]). The reduction of DCIP is accompanied by a loss of absorbance at 610 nm.
Buffer Preparation: 50 mM tris HCl, 150 mM KCl, and pH 8.0, 0.8% triton.
L-Dihydroorotic acid stock solution of 20 mM in buffer.
2, 6-Dichloroindophenol Sodium salt hydrate stock solution of 20 mM in buffer.
Decylubiquinone stock solution of 20 mM in buffer.
5 μL of Dimethyl sulfoxide or a compound of formula (I) in DMSO solution was added to the wells of a 96 well plate. Compounds of formula (I) were measured at 10 μM.
Protein along with buffer was added, so that the total volume including the DMSO was 87 μL. Compound and protein were incubated for half an hour at room temperature after mixing. 5 μL of 20 mM solution of L-Dihydroorotic acid, 5 μL of 2 mM solution of Decylubiquinone and 3 μL of 2 mM solution of 2, 6-Dichloroindophenol sodium salt hydrate were added to the above solution (total assay volume 100 μL). The mixture was stirred for 2 min and absorbance was recorded at every 10 min at 610 nanometers.
Percent inhibition is calculated as follows: […]
A 2 mM DMSO stock solution of the selected trisubstituted benzoimidazole and benzotriazole derivatives of formula (I) of the present invention to be examined was prepared. Subsequent ⅓rd dilutions were made.
5 μL of each stock of compound of formula (I) was used for each 100 μL assay. Therefore, 5 μL of the 2 mM stock provided 100 μL of 100 μM solution of compound of formula (I), when made up with buffer, protein and substrate. See also: Ulrich et al. (2001) Eur. J. Biochem.268, 1861-1868.
Target sequence in this assay (Q02127 whole entry): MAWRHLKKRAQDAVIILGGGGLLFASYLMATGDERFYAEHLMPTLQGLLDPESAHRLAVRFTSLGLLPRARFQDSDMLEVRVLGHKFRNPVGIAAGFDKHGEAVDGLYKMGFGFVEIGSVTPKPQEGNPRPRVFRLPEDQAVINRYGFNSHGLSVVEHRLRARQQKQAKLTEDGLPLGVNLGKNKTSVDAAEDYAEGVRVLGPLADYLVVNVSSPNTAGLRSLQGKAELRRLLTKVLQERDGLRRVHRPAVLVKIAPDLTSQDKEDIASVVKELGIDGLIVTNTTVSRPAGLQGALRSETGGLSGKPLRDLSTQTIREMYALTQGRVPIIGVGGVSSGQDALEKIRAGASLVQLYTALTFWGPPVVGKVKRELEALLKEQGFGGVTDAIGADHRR

The next experiment has as its system Ramos cells. Briefly: Ramos proliferation assay (XTT). In kind it is cell-based. To be noted: Homo sapiens, 72 hrs; for inhibition at 30 µM: read-out: Maximum % Inhibition at 30 μM; for IC50: XTT; for inhibition at 10 µM: read-out: Maximum % Inhibition (at 10 μM). From the text: Cell proliferation assay is a sensitive method for quantification of viable cells in cytotoxicity or proliferation assay. The XTT (2,3-bis[2-Methoxy-4-nitro-5-sulfophenyl]-2 H-tetrazolium-5-carboxyanilide inner salt) system is a means of measuring the activity of living cells via mitochondrial dehydrogenases. Mitochondrial dehydrogenases of viable cells cleave the tetrazolium ring of XTT, yielding orange formazon crystals which are soluble in aqueous solutions. The XTT solution is potentiated by the addition of an electron coupling agent, phenazine methosulphate (PMS) to the reaction. The resulting orange colour is spectrophotometrically measured at 450 nm. An increase or decrease in cell numbers results in a concomitant change in the amount of formazon formed, indicating the degree of cytotoxicity caused by the test material.
Dissolve 17.7 g IMDM (Iscove's Modified Dulbecco's Medium) powder, 1.5 g sodium bicarbonate pH 7.2-7.4 in 1 L MiliQ water, add 1% Pencilin/ Streptomycin and 10% FBS.
Dissolve 10.6 g Ham's F12 powder, 1.5 g sodium bicarbonate pH 7.2-7.4 in 1 L MiliQ water, add 1% Penicillin/Streptomycin. DMSO used as vehicle.
Ramos cells were re-suspended to a density of 1×10^5 cells/ ml in complete IMDM medium. 95 μL of this cell suspension was added to the 96-well plate to seed ˜10,000 cells per well. The plates were incubated at 37° C. under a humidified atmosphere of 5% CO2 for ˜1 hour before compound addition.
Test compounds (Refer to Table 1) were dissolved in 100% DMSO to generate a 2/6/10/20 mM stock solution. A 200× concentration of the required final concentrations was prepared in DMSO. 10 μL of each concentration (200×) was then diluted in 90 μL of serum-free Ham's F12 medium to get an intermediate concentration of 20× in medium. The DMSO concentration in this step is 10% (Intermediate dilution). 5 μL of each intermediate dilution was then added in triplicates in the previously seeded 96-well plate. The final DMSO concentration was 0.5% in the experimental wells. Cells treated with 0.5% DMSO served as positive control. 100 μL, of complete IMDM medium served as media blank for data analysis. 200 μL, of 1× PBS was added in all corner wells of the assay plate. Plates were then incubated for 72 hrs in an incubator with 5% CO2 at 37° C.
On termination day, 100 μl of XTT solution (1 mg/ml XTT supplemented with 25 μM PMS in Ham's F12 medium) was added to each well. Plates were incubated for 2 hrs. The amount of formazon produced was determined by reading the absorbance of the plate using VICTOR X5 multilabel plate reader at wavelength of 450 nm. The IC50 values were determined as concentrations that reduced cell viability by 50% and the curve was plotted with GraphPad Prism 6.0.
Percent (%) Inhibition was calculated by normalizing DMSO control values to 100% using the formula: % Inhibition=[…](Abs450test compound−blank)/(Abs450positive control−blank)*100
Test compound contains cells, test compound, IMDM medium and 0.5% DMSO
Positive control contains cells, IMDM medium and 0.5% DMSO
Blank contains IMDM medium
Background: Formazan colour is commonly taken as a measure of viable cells.

Experiment [2] has as its target T1, DHODH. To be noted: cited from earlier work.
Target sequence in this assay (Q02127 whole entry, species assumed): as the sequence (Q02127 whole entry) above

The term IC50 denotes the concentration that gives 50% inhibition. A word on the inhibition: it is the drop in the measured response relative to a control, in per cent. For the molecule `Cn1nc2cc(-c3ccc(-c4cccc(CN5CCOCC5)c4)cc3)cc(C(=O)O)c2n1` [Compound 16, 2-methyl-6-(3′-(morpholinomethyl)-[1,1′-biphenyl]-4-yl)-2H-benzo[d][1,2,3]triazole-4-carboxylic acid], the 50% inhibitory concentration (IC50) is above 1000 nM at DHODH [1] and 6140 nM in the experiment on Ramos cells. Besides, in the experiment with Ramos cells, the inhibition at 30 µM came out at 124%.
On to `Cn1nnc2cc(-c3ccc(-c4cccc(CN5CCCC5)c4)cc3)cc(C(=O)O)c21` [Compound 17, 1-methyl-5-(3′-(pyrrolidin-1-ylmethyl)-[1,1′-biphenyl]-4-yl)-1H-benzo[d][1,2,3]triazole-7-carboxylic acid], for which the IC50 on DHODH [1] was above 1000 nM. Further, the inhibition at 30 µM in the experiment with Ramos cells is 50%.
Take `Cn1nnc2cc(-c3c(F)c(F)c(-c4ccccc4)c(F)c3F)cc(C(=O)O)c21` [Compound 19, 1-methyl-5-(2,3,5,6-tetrafluoro-[1,1′-biphenyl]-4-yl)-1H-benzo[d][1,2,3]triazole-7-carboxylic acid]: the IC50 on DHODH [1] was below 100 nM. Further, in the experiment with Ramos cells, the inhibition at 30 µM came to 106% and the half-maximal inhibitory concentration (IC50) stood at 70 nM.
`Cn1nnc2c(C(=O)O)cc(-c3ccc(-c4cccc(CN5CCCCC5)c4)cc3)cc21` [Compound 20, 1-methyl-6-(3′-(piperidin-1-ylmethyl)-[1,1′-biphenyl]-4-yl)-1H-benzo[d][1,2,3]triazole-4-carboxylic acid]: the IC50 at DHODH [1] was above 1000 nM. In the experiment with Ramos cells, the inhibition at 30 µM is 129% and the IC50 turned out to be 3720 nM.
With `Cn1nc2cc(-c3c(F)c(F)c(-c4ccccc4)c(F)c3F)cc(C(=O)O)c2n1` [Compound 24, 2-methyl-6-(2,3,5,6-tetrafluoro-[1,1′-biphenyl]-4-yl)-2H-benzo[d][1,2,3]triazole-4-carboxylic acid], the IC50 on DHODH [1] is below 100 nM; with Ramos cells, 400 nM. In addition, the inhibition at 30 µM in the experiment on Ramos cells came to 104%.
As to `Cn1nnc2cc(-c3ccc(-c4ccccc4CN4CCOCC4)cc3)cc(C(=O)O)c21` [Compound 25, 1-methyl-5-(2′-(morpholinomethyl)-[1,1′-biphenyl]-4-yl)-1H-benzo[d][1,2,3]triazole-7-carboxylic acid], at DHODH [1], the IC50 fell in the range of 101 to 1000 nM. Besides, in the experiment on Ramos cells, the inhibition at 30 µM was found to be 120% and the IC50 was found to be 2820 nM.
For `Cn1nc2cc(-c3ccc(-c4ccccc4CN4CCOCC4)cc3)cc(C(=O)O)c2n1` [Compound 26, 2-methyl-6-(2′-(morpholinomethyl)-[1,1′-biphenyl]-4-yl)-2H-benzo[d][1,2,3]triazole-4-carboxylic acid] the same measures were above 1000 nM, 133% and 4260 nM.
In the same order, the values of `Cn1nnc2cc(-c3ccc(-c4ccccc4CN4CCCC4)cc3)cc(C(=O)O)c21` [Compound 27, 1-methyl-5-(2′-(pyrrolidin-1-ylmethyl)-[1,1′-biphenyl]-4-yl)-1H-benzo[d][1,2,3]triazole-7-carboxylic acid] are above 1000 nM, 89% and 3050 nM.
Regarding `CN1CCN(Cc2ccccc2-c2ccc(C3=CC4N=NN(C)C4C(C(=O)O)=C3)cc2)CC1` (centres unmarked) [Compound 29, 1-methyl-5-(2′-((4-methylpiperazin-1-yl)methyl)-[1,1′-biphenyl]-4-yl)-3a,7a-dihydro-1H-benzo[d][1,2,3]triazole-7-carboxylic acid], the IC50 at DHODH [1] is 101 to 1000 nM; with Ramos cells it was 8970 nM. Also, the inhibition at 30 µM in the experiment on Ramos cells was 81%.
Take `CN1CCN(Cc2ccccc2-c2ccc(-c3cc(C(=O)O)c4nn(C)nc4c3)cc2)CC1` [Compound 30, 2-methyl-6-(2′-((4-methylpiperazin-1-yl)methyl)-[1,1′-biphenyl]-4-yl)-2H-benzo[d][1,2,3]triazole-4-carboxylic acid]: the IC50 at DHODH [1] is above 1000 nM. The inhibition at 30 µM in the experiment on Ramos cells amounted to 56%.
`Cn1nnc2cc(-c3ccc(-c4ccc(CN5CCOCC5)cc4)cc3)cc(C(=O)O)c21` [Compound 31, 1-methyl-5-(4′-(morpholinomethyl)-[1,1′-biphenyl]-4-yl)-1H-benzo[d][1,2,3]triazole-7-carboxylic acid]: the IC50 on DHODH [1] was above 1000 nM. Besides, in the experiment on Ramos cells, the inhibition at 10 µM amounted to 81% and the IC50 came out at 1350 nM.
In the case of `CC(=O)Nc1cccc(-c2ccc(-c3cc(C(=O)O)c4c(c3)nnn4C)cc2)c1` [Compound 32, 5-(3′-acetamido-[1,1′-biphenyl]-4-yl)-1-methyl-1H-benzo[d][1,2,3]triazole-7-carboxylic acid], the IC50 at DHODH [1] is above 1000 nM. For the same molecule, in the experiment on Ramos cells, the inhibition at 30 µM is 74% and the 50% inhibitory concentration (IC50) was found to be 14600 nM.
For the molecule `Cn1nnc2cc(-c3c(F)c(F)c(-c4cccc(CN5CCCCC5)c4)c(F)c3F)cc(C(=O)O)c21` [Compound 34, 1-methyl-5-(2,3,5,6-tetrafluoro-3′-(piperidin-1-ylmethyl)-[1,1′-biphenyl]-4-yl)-1H-benzo[d][1,2,3]triazole-7-carboxylic acid.2,2,2-trifluoroacetic acid], the IC50 was 101 to 1000 nM on DHODH [1] and 675 nM with Ramos cells. Besides, in the experiment with Ramos cells, the inhibition at 10 µM turned out to be 111%.
`Cn1nc2cc(-c3c(F)c(F)c(-c4cccc(CN5CCCCC5)c4)c(F)c3F)cc(C(=O)O)c2n1` [Compound 38, 2-methyl-6-(2,3,5,6-tetrafluoro-3′-(piperidin-1-ylmethyl)-[1,1′-biphenyl]-4-yl)-2H-benzo[d][1,2,3]triazole-4-carboxylic acid]: the values for the IC50 at DHODH [1] and in the experiment with Ramos cells were 101 to 1000 nM and 1600 nM, respectively. Besides, in the experiment with Ramos cells, the inhibition at 30 µM is 92%.
For `Cn1nc2cc(-c3c(F)c(F)c(-c4cccc(CN5CCOCC5)c4)c(F)c3F)cc(C(=O)O)c2n1` [Compound 39, 2-methyl-6-(2,3,5,6-tetrafluoro-3′-(morpholinomethyl)-[1,1′-biphenyl]-4-yl)-2H-benzo[d][1,2,3]triazole-4-carboxylic acid] the same measures were 101 to 1000 nM, 1870 nM and 96%.
`CN(C)Cc1cccc(-c2c(F)c(F)c(-c3cc(C(=O)O)c4c(c3)nnn4C)c(F)c2F)c1` [Compound 40, 5-(3′-((dimethylamino)methyl)-2,3,5,6-tetrafluoro-[1,1′-biphenyl]-4-yl)-1-methyl-1H-benzo[d][1,2,3]triazole-7-carboxylic acid]: the IC50 at DHODH [1] lay in the range of 101 to 1000 nM. Moreover, in the experiment on Ramos cells, the inhibition at 30 µM turned out to be 84% and the IC50 was 11800 nM.
As to `C/C(O)=C(\C#N)C(=O)Nc1ccc(C(F)(F)F)cc1` [Teriflunomide], the “Fold greater inhibitor of DHODH than of protein tyrosine kinase” value on DHODH [2] is 100-1,000 fold.
